Drawing on PubChem BioAssay (NCI), this text covers GI50 and TGI for 11 molecules.

Each structure is given as a SMILES string.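 A five-concentration, 48-hour dose response in 96-well plates underlies each endpoint, interpolated linearly between surrounding concentrations. GI50 = concentration required for 50% inhibition of growth. TGI: total growth inhibition.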 Some results are limits rather than exact numbers.

Test systems include COLO 205 colon; HS 578T breast; KM12 colon; MALME-3M melanoma; NCI-H226 lung; OVCAR-3 ovarian; OVCAR-8 ovarian; SF-268 CNS; SK-MEL-2 melanoma; UACC-257 melanoma.
What all share (experiment): inhibition of tumour cell growth, NCI panel, 48 h

On to `C=CC(=O)N1CCN([C@@H](CC2CC2)c2ccc([C@H](C)Nc3ncc4c(n3)N(CC)C(=O)OC4)cc2)CC1`, for which the GI50 in the assay with COLO 205 colon was 16.9 µM; with HS 578T breast, 9.19 µM; in the assay with KM12 colon, 15.1 µM; in the assay with MALME-3M melanoma, 15.9 µM; with NCI-H226 lung, 14.1 µM; with OVCAR-3 ovarian, 12 µM. Moreover, the GI50 with OVCAR-8 ovarian was 11.1 µM; in the assay on SF-268 CNS, 11.7 µM; in the assay on SK-MEL-2 melanoma, 12.6 µM; in the assay on UACC-257 melanoma it was 10.9 µM. In addition, the TGI amounted to 36 µM in the assay with COLO 205 colon; 55.6 µM in the assay with HS 578T breast; 34.6 µM in the assay on KM12 colon; 30.8 µM in the assay on MALME-3M melanoma; 34.7 µM with NCI-H226 lung; 26.5 µM in the assay with OVCAR-3 ovarian. Moreover, the TGI in the assay on OVCAR-8 ovarian was found to be 26.7 µM; in the assay with SF-268 CNS, 28.5 µM; with SK-MEL-2 melanoma, 27.4 µM; in the assay with UACC-257 melanoma it was 25.5 µM.
For `CC(C)Cn1cnc2c(N)nc3ccccc3c21`, the GI50 is 20.7 µM with COLO 205 colon; 60.8 µM with HS 578T breast; 56.6 µM with KM12 colon; greater than 100 µM in the assay with MALME-3M melanoma; 73.6 µM with NCI-H226 lung; greater than 92.9 µM in the assay on OVCAR-3 ovarian. In addition, the GI50 was 67.5 µM with OVCAR-8 ovarian, 61.3 µM with SF-268 CNS, 41.5 µM in the assay with SK-MEL-2 melanoma and 33.7 µM in the assay on UACC-257 melanoma. Moreover, the TGI was greater than 88.2 µM with COLO 205 colon; greater than 100 µM with HS 578T breast; greater than 100 µM in the assay with KM12 colon; greater than 100 µM with MALME-3M melanoma; greater than 100 µM with NCI-H226 lung; greater than 100 µM in the assay with OVCAR-3 ovarian. In addition, the TGI in the assay with OVCAR-8 ovarian is greater than 100 µM; in the assay on SF-268 CNS it was greater than 100 µM; in the assay with SK-MEL-2 melanoma, greater than 100 µM; in the assay with UACC-257 melanoma, greater than 91.5 µM.
On to `Clc1ccc(NCNC2Nc3ccccc3N2)cc1Cl`, for which the TGI in the assay with COLO 205 colon is greater than 100 µM; in the assay with HS 578T breast it was greater than 100 µM; in the assay on KM12 colon, 92.5 µM; in the assay with MALME-3M melanoma, greater than 100 µM; in the assay on NCI-H226 lung, greater than 100 µM; in the assay with OVCAR-3 ovarian, greater than 100 µM. In addition, the TGI in the assay with OVCAR-8 ovarian was 46.6 µM; in the assay with SF-268 CNS, greater than 100 µM; in the assay on SK-MEL-2 melanoma it was 79.6 µM; with UACC-257 melanoma, greater than 100 µM.
For `CC(C)OC(=O)Nc1c([N+](=O)[O-])cc(C(F)(F)F)cc1[N+](=O)[O-]`, the TGI in the assay with COLO 205 colon, in the assay on HS 578T breast, in the assay on KM12 colon, with MALME-3M melanoma, with NCI-H226 lung and in the assay with OVCAR-3 ovarian was greater than 100 µM throughout. Further, the TGI in the assay on OVCAR-8 ovarian, in the assay with SF-268 CNS, in the assay with SK-MEL-2 melanoma and in the assay with UACC-257 melanoma was greater than 100 µM each time.
In the case of `O=C(Nc1ccc(Nc2ccc3c(c2)C(=O)c2ccccc2C3=O)c2c1C(=O)c1ccccc1C2=O)c1ccccc1`, the TGI is greater than 100 µM in the assay with COLO 205 colon; greater than 91.9 µM in the assay with HS 578T breast; greater than 100 µM with KM12 colon; greater than 100 µM in the assay with MALME-3M melanoma; greater than 100 µM in the assay on NCI-H226 lung; greater than 100 µM in the assay with OVCAR-3 ovarian. The TGI was greater than 100 µM in the assay on OVCAR-8 ovarian, greater than 100 µM in the assay on SF-268 CNS, greater than 30.5 µM with SK-MEL-2 melanoma and greater than 100 µM in the assay on UACC-257 melanoma.
Turning to `CC(C)CC(NC(=O)C(O)C(N)Cc1ccccc1)C(=O)O` (stereo unspecified), the TGI in the assay on COLO 205 colon, in the assay with HS 578T breast, in the assay on KM12 colon, with MALME-3M melanoma, in the assay on NCI-H226 lung and in the assay on OVCAR-3 ovarian was greater than 100 µM in each case. The TGI in the assay with OVCAR-8 ovarian, in the assay with SF-268 CNS, with SK-MEL-2 melanoma and with UACC-257 melanoma was greater than 100 µM throughout.
With `COc1ccc(-c2cc(=O)c3c(C)ccnc3[nH]2)cc1`, the TGI in the assay on COLO 205 colon is 16.4 µM; with HS 578T breast, 77.1 µM; in the assay with KM12 colon it was 23.2 µM; in the assay with MALME-3M melanoma, 65.2 µM; in the assay with NCI-H226 lung, greater than 100 µM; with OVCAR-3 ovarian it was 92 µM. In addition, the TGI in the assay with OVCAR-8 ovarian was greater than 100 µM; with SF-268 CNS, 44.3 µM; with SK-MEL-2 melanoma, 28.1 µM; with UACC-257 melanoma, greater than 100 µM. In addition, the GI50 in the assay with OVCAR-3 ovarian is 13.9 µM.
`COc1cccc(C2CC(C)(O)Oc3cc4c(cc32)OCO4)c1` (stereo unspecified): the TGI is 43.1 µM in the assay with COLO 205 colon; 49.6 µM with HS 578T breast; greater than 100 µM with KM12 colon; greater than 100 µM in the assay with MALME-3M melanoma; 53 µM with NCI-H226 lung; 56 µM in the assay on OVCAR-3 ovarian. For the same molecule, the TGI in the assay with OVCAR-8 ovarian is greater than 100 µM; in the assay on SF-268 CNS, greater than 100 µM; in the assay on SK-MEL-2 melanoma it was 43.6 µM; with UACC-257 melanoma, greater than 100 µM.
On to `COc1cc(OC)c(OC)cc1/C=C/c1ccccn1`, for which the TGI in the assay with COLO 205 colon, with HS 578T breast, in the assay on KM12 colon, in the assay on MALME-3M melanoma, in the assay on NCI-H226 lung and with OVCAR-3 ovarian was greater than 10 µM throughout. In addition, the TGI with OVCAR-8 ovarian, with SF-268 CNS, in the assay with SK-MEL-2 melanoma and in the assay on UACC-257 melanoma was greater than 10 µM each time.
As to `O=C(O)C1CCCN1` (stereo unspecified), the TGI in the assay on COLO 205 colon, in the assay with HS 578T breast, with KM12 colon, with MALME-3M melanoma, in the assay with NCI-H226 lung and in the assay on OVCAR-3 ovarian was greater than 100 µM throughout. Further, the TGI with OVCAR-8 ovarian, in the assay on SF-268 CNS, in the assay with SK-MEL-2 melanoma and in the assay with UACC-257 melanoma was greater than 100 µM throughout.
Regarding `CCn1c(-c2nonc2N)nc2cnc(Oc3cccc(NC(=O)c4ccc(OCCN5CCOCC5)cc4)c3)cc21`, the GI50 in the assay with COLO 205 colon was 3.34 µM; in the assay with HS 578T breast, 0.0149 µM; in the assay on KM12 colon it was 7.63 µM; in the assay on MALME-3M melanoma, 4.14 µM; with NCI-H226 lung, 1.24 µM; in the assay on OVCAR-3 ovarian, 7.17 µM. Further, the GI50 in the assay with OVCAR-8 ovarian was 6.25 µM; in the assay with SF-268 CNS, 0.724 µM; with SK-MEL-2 melanoma, 7.54 µM; in the assay with UACC-257 melanoma, 7.09 µM. Also, the TGI is greater than 25 µM with COLO 205 colon; 8.26 µM in the assay on HS 578T breast; greater than 25 µM in the assay with KM12 colon; greater than 25 µM in the assay with MALME-3M melanoma; greater than 25 µM in the assay on NCI-H226 lung; greater than 25 µM in the assay with OVCAR-3 ovarian. For the same molecule, the TGI with OVCAR-8 ovarian, in the assay with SF-268 CNS, in the assay on SK-MEL-2 melanoma and with UACC-257 melanoma was greater than 25 µM in each case.
